# Measured values taken from patent US9023761B2, “Compositions and methods for blocking ethylene response in plants using 3-cyclopropyl-1-enyl-propanoic acid salt” (Yissum Research Development Company of the Hebrew …, priority 2007, dated 2015).
# Where two headings read alike, the source gives them in different places.
# Tests used:
# [1] = background statement; cited from earlier work
# Carnation flower = experiment: Carnation cut flower vase life; format: in vivo
# Experimental: (§1) Each kind of the model plants was exposed to different concentrations of CPAS in an aqueous solution for 6-18 h as a pre-treatment following exposure for 24 h to different concentration of ethylene. In the case of banana and avocado fruits, the peel was brushed with different concentrations of CPAS aqueous solution, in the presence of commercially available Tween 20 surfactant (0.025%) as pre-ethylene treatment, and the delay in days elapsed until color breakdown (from green to yellow in banana—Table 1, FIG. 4; and from green to black in avocado—Table 1, FIG. 6) over air control was recorded as a criterion of the efficiency of the ethylene antagonist. In the case of peach fruit, the surfactant BAS 70 (generously supplied by BASF, Germany) was used. The results were recorded after incubation of 2-4 days in controlled conditions (Table 1, FIG. 11). When using cut flower models (FIGS. 1-3) CPAS aqueous solutions±surfactants was applied by loading either the cut flower or the isolated petals for 18 h in CPAS aqueous solutions prior to ethylene treatment. The number of days of the delay of senescence of the tested plant materials over water control was recorded, by following the visual wilting of the flowers. Tomato seedlings were sprayed with CPAS aqueous solutions in the presence of commercial available ‘Kinetic’ organo-silicone surfactant blend, kept for calibration in a growth chamber for 8-10 hr before spraying with CPAS solution or before loading CPSA by excised seedlings via their lower stem cut surface (Table 1, FIG. 10) in order to antagonize ethylene-induced epinasty of leaf petioles (Table 1, FIGS. 8-9). In the case of citrus leaf explants, abscission was tested at the laminar abscission zone. CPAS in aqueous solution, was either pre-treated by direct loading of the treatment solutions into the proximal side of the explant for 17 h, or by dipping the whole explant in the tested solutions for 30 to 60 sec in the presence of commercially available Tween 20 TM surfactant (0.025%. In all cases, a significant delaying action of ethylene-induced responses, was recorded in all the plant systems examined (Table 1, FIG. 7). In further examples, the concentrations of the CPAS aqueous solutions were used in the range of the results obtained in the above experiment.
# Carnation cut flowers treated by dipping cut surface for 18 hr in aqueous solution containing 8 μg mL^−1 of CPAS. Untreated flowers were held in water. After treatment all flowers are kept in water at 22° C. and 80% RH under continuous fluorescent light for assessment of their vase life. Photo was taken on day 14.
# [2] = Solubility and stability in water; format: physicochemical
# Carnation flower petal = experiment: Ethylene-induced senescence of isolated carnation petals; format: in vivo
# Experimental: as §1
# The following test was designed to further establish the ability of water soluble CPAS in aqueous solution to delay the ethylene-induced senescence of isolated carnation petals. The experiment was carried out in a growth chamber to ensure optimal environmental conditions (light, temperature and relative humidity). Carnation petals were loaded with CPAS by dipping their cut surface for 18 hr in aqueous solution containing 81 μg mL^−1 of CPAS. Untreated petals that were held in water. […]
# Citrus leaf explants = experiment: Abscission of citrus leaf explants; format: in vivo; conditions: for Minimum apparent concentration / Protection time (days over control): Citrus leaf abscission, ethylene treatment +
# Experimental: as §1
# The application of water soluble CPAS to citrus leaf explants was studied under air, antagonizing endogenous ethylene-induced abscission, comparing two methods of applications; either by dipping their petiole cut surfaces for 6 h in CPAS aqueous solution, or by dipping the whole explants for 30 sec. in the same treatment solution plus or minus a surfactant. In this experiment Tween-20 (0.025%) was chosen as surfactant, but any un-ionic surfactant may be chosen. The experiment indicates, as expected, that surfactants improve the penetration into plant tissues. However, if application is preferred via a cut surface like with cut flowers, there is no need to add a surfactant to the treatment solution (FIG. 7).
# FIG. 7 represents a set of three figures, wherein explants are loaded with CPAS by dipping their petiole cut surfaces for 6 h in CPAS aqueous solution (A); dipped for 30 sec. in the same treatment solution (B); and treated as in B, but including Tween-20 [0.025%] (C).
# Petunia flower = experiment: Petunia cut flower vase life after ethylene; format: in vivo
# Experimental: as §1, with “Tomato seedlings were sprayed with CPAS aqueous solutions in the presence of commercial available ‘Kinetic’ organo-silicone surfactant blend, kept for calibration in a growth chamber for 8-10 hr before spraying with CPAS solution or before loading CPSA by excised seedlings via their lower stem cut surface (Table 1, FIG. 10) in order to antagonize ethylene-induced epinasty of leaf petioles (Table 1, FIGS. 8-9). In the case of citrus leaf explants, abscission was tested at the laminar abscission zone.” left out, “experiment. […]” for “experiment.”
# Banana fruit = experiment: Ethylene-induced ripening of green banana fruit (peel color, firmness); format: in vivo
# Experimental: as §1
# Banana fruits were treated by brushing with aqueous solution of water soluble CPAS (200 μg mL^−1). After 18 hr all treated and untreated fruits were exposed to ethylene (300 μL^−1) to hasten ripening. All fruits were ventilated and held in air at 22° C. and 92% RH for assessment of their ripening value. Photos were taken on day 12 (untreated—FIG. 4A, treated FIG. 4B).
# Additionally, banana fruits were treated by brushing with aqueous solution of CPAS ([…], and commercially available surfactant Tween 20 [0.025%]) and after 18 hr were exposed to ethylene (300 μL/L^−1) for 24 hr to hasten ripening. Fruits were kept at 24° C. and 92% RH. The fruits kept in air and treated by CPAS only served as comparative ones. Results were collected on day 7 (FIG. 5A).
# Avocado fruit = experiment: Ethylene-induced ripening of 'Hass' avocado fruit (peel color, firmness, peduncle abscission); format: in vivo
# Experimental: as §1
# “Hass” avocado fruits with long peduncles were loaded with water soluble CPAS by dipping the peduncle cut surface for 30 hr in aqueous solution containing 100 μg/mL^−1 of CPAS. The untreated fruits with peduncles immersed in water. After the treatment with CPAS all fruits were exposed for 24 hr to the ethylene (250 μL L^−1). Afterwards the fruits were held at 24° C. and 92% RH for assessment their maturity parameters (peel color change and pulp firmness) and abscission of the peduncle. Photos were taken on day 5 after treatment (untreated—FIG. 6A, treated FIG. 6B).
# Tomato leaf petiole = experiment: Ethylene-induced epinasty of tomato leaf petioles; format: in vivo; design: key to Protection (effect grade): + = weak effect; ++ = medium effect; +++ = strong effect; conditions: ethylene treatment +
# Experimental: as §1
# For the spraying experiment (FIG. 8) tomato plants from green house (3 weeks old) were brought for calibration in a growth chamber (8-10 hr, at 22° C. and 80% RH, under continuous fluorescent light). […]
# In a second experiment the changes of the degree of the petiole from the branch, that expresses the epinastic response, was calculated (FIG. 9). […]
# Peach fruit = Peach fruit firmness / shelf life after spraying; format: in vivo
# Experimental: as §1, with “When using cut flower models (FIGS. 1-3) CPAS aqueous solutions±surfactants was applied by loading either the cut flower or the isolated petals for 18 h in CPAS aqueous solutions prior to ethylene treatment.” left out, “Tomato seedlings were sprayed with CPAS aqueous solutions in the presence of commercial available ‘Kinetic’ organo-silicone surfactant blend, kept for calibration in a growth chamber for 8-10 hr before spraying with CPAS solution or before loading CPSA by excised seedlings via their lower stem cut surface (Table 1, FIG. 10) in order to antagonize ethylene-induced epinasty of leaf petioles (Table 1, FIGS. 8-9). In the case of citrus leaf explants, abscission was tested at the laminar abscission zone.” left out
# Peach fruits were harvested and brought to the lab and immediately sprayed with different concentrations of CPAS solution (K-phosphate buffer, 20 mM, and 0.1% organo-silicone surfactant, namely BAS 90370S by BASF Germany), and kept at 22° C. and 90% humidity for up to 4 days. […] Firmness was recorded by a penetrometer (chatillon, using a disc of 8 mm diameter), after removing a 15 mm square peel strip in order to allow measuring the firmness directly on the flesh of the fruit.
# [3] = Carnation flower, vase life, loading, ethylene treatment −
# [4] = Carnation flower petal, senescence, loading, ethylene treatment +
# [5] = Petunia flower, vase life, loading, ethylene treatment +
# [6] = Banana fruit, peel color, brushing, ethylene treatment +
# [7] = Avocado fruit, peel color, loading, ethylene treatment +
# [8] = avocado, 100 μg/mL loading via peduncle 30 hr, ethylene 250 μL L^−1 24 hr
# [9] = Peach fruit, firmness, spraying, ethylene treatment −
compound,measurement,setting,value
"CC1=CC1 [1-MCP, 1-methylcyclopropene]",Solubility in water,[1],insolubility in water
"O=C([O-])CCC1=CC1.[Na+] [CPAS, cyclopropyl-1-enyl-propanoic acid sodium salt]",Longevity of carnation cut flowers during vase life,"Carnation flower; 8 μg mL^−1 dipping cut surface 18 hr, day 14, vs untreated",longevity increase
same,Minimum apparent concentration,Carnation flower; [3],0.8 µg/mL
same,Protection time (days over control),Carnation flower; [3],10 days
same,Prolonging the vase-life of carnation cut flowers,Carnation flower; summary statement,≥ 14 days
same,Solubility in water,[2],soluble
same,Stability in water,[2],stable in water
same,Ethylene antagonistic effect on petal senescence,"Carnation flower petal; 81 μg mL^−1 loading 18 hr, ethylene 5 μl L^−1 24 hr, measured after 6 days",highly significant
same,Minimum apparent concentration,Carnation flower petal; [4],81 µg/mL
same,Protection time (days over control),Carnation flower petal; [4],11 days
same,Toxic symptoms,"Carnation flower petal; carnation petals, 81 μg mL^−1 loading 18 hr",No toxic symptoms were observed
same,Minimum apparent concentration,Citrus leaf explants; dipping,42 µg/mL
same,Protection time (days over control),Citrus leaf explants; dipping,2 days
same,Minimum apparent concentration,Citrus leaf explants; loading,32 µg/mL
same,Protection time (days over control),Citrus leaf explants; loading,7 days
same,Delay of abscission of citrus leaf explants,Citrus leaf explants; summary statement,≥ 7 days
same,Minimum apparent concentration,Petunia flower; [5],98 µg/mL
same,Protection time (days over control),Petunia flower; [5],17 days
same,Prolonging the vase-life of petunia cut flowers,Petunia flower; summary statement,≥ 14 days
same,Minimum apparent concentration,Banana fruit; [6],200 µg/mL
same,Protection time (days over control),Banana fruit; [6],6 days
same,Delaying the decrease in fruit firmness,"Banana fruit; banana, 1000 μg mL^−1 brushing, ethylene 24 hr",ineffective
same,Delay of color break of the fruit,"Banana fruit; banana, brushing, ethylene, effective at the higher concentrations",significantly delayed
same,Delay of banana peel de-greening,Banana fruit; summary statement,≥ 12 days
same,Minimum apparent concentration,Avocado fruit; [7],100 µg/mL
same,Protection time (days over control),Avocado fruit; [7],5 days
same,Fruit softening,Avocado fruit; [8],a little delaying effect
same,Peduncle abscission,Avocado fruit; [8],significantly delayed
same,Skin color development,Avocado fruit; [8],significantly delayed
same,Delay of color change of 'Hass' avocado fruit,Avocado fruit; summary statement,≥ 5 days
same,Minimum apparent concentration,Tomato leaf petiole; loading,9 µg/mL
same,Protection (effect grade),Tomato leaf petiole; loading,*+++
same,Minimum apparent concentration,Tomato leaf petiole; spraying,160 µg/mL
same,Protection (effect grade),Tomato leaf petiole; spraying,*+++
same,Minimum apparent concentration,Peach fruit; [9],10 µg/mL
same,Protection time (days over control),Peach fruit; [9],4 days
same,Shelf life of climacteric fruit (peach),"Peach fruit; spraying with surfactant, 22° C., up to 4 days",expand the shelf life
